Assays:
[1] = test system: stress-responsive signaling pathways; assay: Gene Ontology and stress-responsive geneset analysis of RNAseq in HEK293T cells; type: cell-based, human
Protocol: (§1) Cells were lysed and total RNA collected using the RNeasy mini kit, according to manufacturer's instructions (Qiagen). Conventional RNA-seq was conducted via BGI Americas on the BGI Proprietary platform, providing single-end 50 bp reads at 20 million reads per sample. Alignment of sequencing data was done using DNAstar Lasergene SeqManPro to the GRCh37. p 13 human genome reference assembly, and assembly data were imported into ArrayStar 12.2 with QSeq (DNAStar Inc.) to quantify the gene expression levels and normalization to reads per kilobase per million (RPKM). Differential expression analysis and statistical significance calculations between different conditions was assessed using “DESeq” in R, compared to vehicle-treated cells, using a standard negative binomial fit of the RPKM data to generate Fold Change quantifications.

[2] = test system: PERK geneset; assay: RNAseq geneset analysis in HEK293T cells, PERK geneset; type: cell-based, human; details: 6 h
Protocol: as §1
The purpose of this example was to define the ability of the compounds to selectively induce expression of IRE1/XBP1s target genes: for this purpose, RNAseq was performed on HEK293T cells that had been treated with compound No. 198, 474, or 970 for 6 h. As a control, RNAseq was performed on cells that had been treated with the global UPR activator Tg. […] These include the ER stress-responsive transcription factor XBP1 and the ER proteostasis factors SEC24D, […], and HERPUD1^8.
The next step defined the selectivity of the compounds for IRE1/XBP1s signaling relative to other arms of the UPR. […] To overcome this challenge, the expression of individual genes that are included in these genesets were normalized to the expression observed in Tg-treated cells (Tg representing 100% activation of these genes). It was therefore possible to directly compare gene expression without complications arising from differential expression^42.

[3] = test system: secreted Aβ; assay: Aβ ELISA of media conditioned on CHO 7PA2 cells (V717F APP); type: cell-based; details: CHO 7PA2, 10 μM
Protocol: FIGS. 5A-5D. […] Cells were treated for 18 hours, media was then replaced and conditioned in the presence of treatments for 24 hours before harvesting for ELISA assay. Error bars represent SEM for n=3 replicates. Statistics calculated from one-tailed Student's t-test. *p<0.05, **p<0.01, ***p<0.001 (FIG. 5A). Quantification of media and lysate immunoblots from 474 treatment (10 μM) of APP. Error bars represent Standard Deviation for n=3 replicates. Statistics calculated from one-tailed Student's t-test. *p<0.05, **p<0.01 ***p<0.001 (FIG. 5B). Plot showing fraction of total remaining APP at each time point after S35 metabolic labeling of newly synthesized protein, accounting for the sum of APP in lysate and media. Error bars represent Standard Deviation for n=3 replicates. Statistics calculated from one-tailed Student's t-test. *p<0.05, **p<0.01, ***p<0.001 (FIG. 5C). Plot showing fraction of secreted APP collected at 2 hours after metabolic labeling. Error bars represent Standard Deviation for n=3 replicates. Statistics calculated from one-tailed Student's t-test. *p<0.05, **p<0.01, ***p<0.001 (FIG. 5D).
7PA2 or 7WD10 cells were cultured on 96-well plates (Corning) and treated with IRE1 activating compounds +/−4 μ8c overnight. The medium was then replaced at 50% volume with treatment remaing, culture medium was collected after 24 hours. The medium was analyzed by an AP ELISA as follows. Monoclonal 6E10 anti-Aβ(residues 1-17) mouse IgG1, (Biolegend) was coated in […] carbonate buffer, pH 9.6, at 4° C. overnight on high binding assay black plates (Costar), washed with TBST (tris buffered saline with 0.05% Tween 20) and blocked with 5% non-fat milk in TBST. Samples and standards (condition 7PA2 media) were incubated for 1.5 hr, followed by addition of 4G8 antibody [anti-Aβ residues 17-24, mouse IgG2b (Biolegend)] conjugated to horseradish peroxidase (hrp) and incubated for 1.5 hr at 25° C. After washing, ABM substrate was added, followed by detection with an absorbance plate reader.
ELISA was used to monitor Aβ in media conditioned on a CHO cell line stably expressing the destabilized, disease-associated V717F APP mutant (CHO^7PA2)^45 treated with or without compounds 198, 474, and 970. […] The reduction in A secretion can be attributed to IRE1 activation because the reduced extracellular accumulation of Aβ is blocked by co-treatment with the active site IRE1 inhibitor 4 μ8c (FIG. 5A).

SMILES | Gene Ontology analysis of induced genes [1] | activation of other stress responsive signaling pathways apart from IRE1/XBP1s [1] | expression of the PERK geneset [2] | Aβ in conditioned media relative to control conditioned media [3] [%]
CCOC(CNC(=O)C1CCCN(Cc2nc(-c3ccc(Cl)cc3)oc2C)C1)OCC (stereo not drawn) [Compound 198] | primarily induce expression of genes annotated with GO terms related to ER stress and the UPR | to a lesser extent | increased expression of the PERK geneset | 50
Cc1ccc(OCCN(C)C(=O)Cn2cc(NC(=O)CCOc3ccccc3)cn2)cc1 [Compound 474] | primarily induce expression of genes annotated with GO terms related to ER stress and the UPR | do not significantly activate | did not demonstrate this effect | 50
O=C(CN(Cc1ccc(Cl)cc1)S(=O)(=O)c1cccnc1)N1CCc2ccccc21 [Compound 970] | primarily induce expression of genes annotated with GO terms related to ER stress and the UPR | do not significantly activate | did not demonstrate this effect | 50

From patent US11426402B2, “IRE1 activating compounds for use in therapy” (The Scripps Research Institute, priority 2019, dated 2022)
